From ChEMBL document CHEMBL6134779, “Design of Proteolytic-Resistant Antifungal Peptides by Utilizing Minimum d-Amino Acid Ratios” (J Med Chem, 2024)
≈ marks a conversion by molar mass, not a printed value. Calls of active or inactive are those of the source. The calls are words filed in the database; no cut-off is given here.

How the values were obtained:
Candida albicans [1] = assay: Antifungal activity against Fluconazole-resistant Candida albicans 58288 assessed as inhibition of fungal growth incubated for 48 hrs; type: functional
Candida albicans [2] = assay: Antifungal activity against Candida albicans CGMCC 2.2086 assessed as inhibition of fungal growth incubated for 48 hrs; type: functional
Candida albicans [3] = assay: Antifungal activity against Candida albicans CGMCC 2.2086 infected in C57BL/6 mouse keratitis model assessed as reduction in fungal cell count at 1 mg/ml administered as 10 uL eye drop every 5 mins for first 1 hr and every 30 mins for next 7 hrs; type: functional, organism-based; conditions: route ou, time 8.0 hrs
Candida albicans [4] = assay: Antifungal activity against Candida albicans CGMCC 2.2086 infected in C57BL/6 mouse keratitis model assessed as reduction in clinical scores at 1 mg/ml administered as 10 uL eye drop every 5 mins for first 1 hr and every 30 mins for next 7 hrs; type: functional, organism-based; conditions: route ou, time 8.0 hrs
Candida albicans [5] = assay: Antifungal activity against Candida albicans CGMCC 2.2086 infected in C57BL/6 mouse keratitis model assessed as reduction in mycelia in the eyes at 1 mg/ml administered as 10 uL eye drop every 5 mins for first 1 hr and every 30 mins for next 7 hrs by Schiff staining based assay; type: functional, organism-based; conditions: route ou, time 8.0 hrs
Candida albicans [6] = assay: Antifungal activity against Candida albicans 14936 assessed as inhibition of fungal growth incubated for 48 hrs; type: functional
Candida parapsilosis = assay: Antifungal activity against Candida parapsilosis CGMCC 2.3989 assessed as inhibition of fungal growth incubated for 48 hrs; type: functional; conditions: Lodderomyces parapsilosis
Candida albicans [7] = assay: Antifungal activity against Candida albicans 17546 assessed as inhibition of fungal growth incubated for 48 hrs; type: functional
Candida tropicalis = assay: Antifungal activity against Candida tropicalis CGMCC 2.1975 assessed as inhibition of fungal growth incubated for 48 hrs; type: functional
Candida albicans [8] = assay: Antifungal activity against Candida albicans SP3876 assessed as inhibition of fungal growth incubated for 48 hrs; type: functional
Candida albicans [9] = assay: Antifungal activity against Candida albicans 56452 assessed as inhibition of fungal growth incubated for 48 hrs; type: functional
Candida albicans [10] = assay: Antifungal activity against Candida albicans SP3903 assessed as inhibition of fungal growth incubated for 48 hrs; type: functional
Candida albicans [11] = assay: Antifungal activity against Candida albicans SP3931 assessed as inhibition of fungal growth incubated for 48 hrs; type: functional
Candida albicans [12] = assay: Antifungal activity against Candida albicans SP3902 assessed as inhibition of fungal growth incubated for 48 hrs; type: functional
Candida albicans [13] = assay: Antifungal activity against Fluconazole-resistant Candida albicans 56214 assessed as inhibition of fungal growth incubated for 48 hrs; type: functional
[14] = Proteolytic stability of the compound assessed as chymotrypsin (unknown origin)-mediated drug degradation measured after 8 hrs by 16.5% tricine-SDS-PAGE analysis; type: ADME; conditions: human
Candida albicans [15] = assay: Antifungal activity against Candida albicans CGMCC 2.2086 assessed as inhibition of fungal growth incubated for 2 hrs in presence of trypsin; type: functional, organism-based
[16] = Proteolytic stability of the compound assessed as trypsin (unknown origin)-mediated drug degradation measured after 8 hrs by 16.5% tricine-SDS-PAGE analysis; type: ADME; conditions: human
Candida albicans [17] = assay: Antifungal activity against Candida albicans CGMCC 2.2086 assessed as inhibition of fungal growth incubated for 2 hrs in presence of protease K; type: functional, organism-based
Candida albicans [18] = assay: Antifungal activity against Candida albicans CGMCC 2.2086 assessed as inhibition of fungal growth incubated for 2 hrs in presence of chymotrypsin; type: functional, organism-based
[19] = Proteolytic stability of the compound assessed as protease K (unknown origin)-mediated drug degradation measured after 8 hrs by 16.5% tricine-SDS-PAGE analysis; type: ADME; conditions: human

With `C[C@@H]1[C@H](O)[C@@H](C)/C=C/C=C/C=C/C=C/C=C/C=C/C=C/[C@H](O[C@@H]2O[C@H](C)[C@@H](O)[C@H](N)[C@@H]2O)C[C@@H]2O[C@](O)(C[C@@H](O)C[C@@H](O)[C@H](O)CC[C@@H](O)C[C@@H](O)CC(=O)O[C@H]1C)C[C@H](O)[C@H]2C(=O)O` [AMPHOTERICIN B] the MIC95 (Candida albicans [1]) was 0.25 µM (≈ 0.231 µg/mL), the MIC95 (Candida albicans [2]) was 0.25 µM (≈ 0.231 µg/mL) and the Activity (Candida albicans [3]) was “Active”. The Activity (Candida albicans [4]) was “Active”, the Activity (Candida albicans [5]) was “Active; Mycelia In The Eyes Was Either Absent Or Minimal” and the MIC95 (Candida albicans [6]) was 0.25 µM (≈ 0.231 µg/mL). It also gave an MIC95 (Candida parapsilosis) of 0.25 µM (≈ 0.231 µg/mL), an MIC95 (Candida albicans [7]) of 0.25 µM (≈ 0.231 µg/mL) and an MIC95 (Candida tropicalis) of 0.25 µM (≈ 0.231 µg/mL). The MIC95 (Candida albicans [8]) was 0.25 µM (≈ 0.231 µg/mL), the MIC95 (Candida albicans [9]) was 0.25 µM (≈ 0.231 µg/mL) and the MIC95 (Candida albicans [10]) was 0.25 µM (≈ 0.231 µg/mL). The MIC95 (Candida albicans [11]) was 0.25 µM (≈ 0.231 µg/mL), the MIC95 (Candida albicans [12]) was 0.25 µM (≈ 0.231 µg/mL) and the MIC95 (Candida albicans [13]) was 0.25 µM (≈ 0.231 µg/mL).

With `CC[C@H](C)[C@H](NC(=O)CN)C(=O)NCC(=O)N[C@@H](C)C(=O)N[C@H](C(=O)N[C@@H](CC(C)C)C(=O)N[C@@H](CCCCN)C(=O)N[C@H](C(=O)N[C@@H](CC(C)C)C(=O)N[C@H](C(=O)N[C@H](C(=O)NCC(=O)N[C@@H](CC(C)C)C(=O)N1CCC[C@H]1C(=O)N[C@@H](C)C(=O)N[C@@H](CC(C)C)C(=O)N[C@H](C(=O)N[C@@H](CO)C(=O)N[C@@H](Cc1c[nH]c2ccccc12)C(=O)N[C@H](C(=O)N[C@@H](CCCCN)C(=O)N[C@@H](CCCNC(=N)N)C(=O)N[C@@H](CCCCN)C(=O)N[C@@H](CCCNC(=N)N)C(=O)N[C@@H](CCC(N)=O)C(=O)N[C@@H](CCC(N)=O)C(N)=O)[C@@H](C)CC)[C@@H](C)CC)[C@@H](C)O)[C@@H](C)O)C(C)C)C(C)C` [MELITTIN] the MIC95 (Candida albicans [1]) was 4 µM (≈ 11.4 µg/mL), the Stability [14] was “Unstable” and the Activity (Candida albicans [15]) was “inactive”. For the same compound, the MIC95 (Candida albicans [2]) was 4 µM (≈ 11.4 µg/mL), the Stability [16] was “Unstable” and the Activity (Candida albicans [17]) was “inactive”. The MIC95 (Candida albicans [6]) was 4 µM (≈ 11.4 µg/mL), the MIC95 (Candida parapsilosis) was 2 µM (≈ 5.69 µg/mL) and the Activity (Candida albicans [18]) was “inactive”. For the same compound, the MIC95 (Candida albicans [7]) was 4 µM (≈ 11.4 µg/mL), the MIC95 (Candida tropicalis) was 2 µM (≈ 5.69 µg/mL) and the Stability [19] was “Unstable”. The MIC95 (Candida albicans [8]) was 4 µM (≈ 11.4 µg/mL), the MIC95 (Candida albicans [9]) was 4 µM (≈ 11.4 µg/mL) and the MIC95 (Candida albicans [10]) was 4 µM (≈ 11.4 µg/mL). The MIC95 (Candida albicans [11]) was 4 µM (≈ 11.4 µg/mL), the MIC95 (Candida albicans [12]) was 4 µM (≈ 11.4 µg/mL) and the MIC95 (Candida albicans [13]) was 2 µM (≈ 5.69 µg/mL).
